According to article PMC12856912, “Structure-Guided Semisynthesis of Blasticidin S–Amicetin Chimeras as Selective Ribosome Inhibitors” (Journal of the American Chemical Society, 2026):
≈ marks a conversion by molar mass, not a printed value. Read-outs that look alike come from different tables or passages of the source.

What was measured:
[1] = system: Pseudomonas aeruginosa; test: Antibacterial MIC assay, serial dilution; assay type: cell-based; conditions: for MIC: Pseudomonas aeruginosa, range from biological replicates, read-out: MIC P. aeruginosa
Procedure, shortened: (§1)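 MIC is the lowest concentration giving >90% growth inhibition by OD600, normalized to doxycycline and vehicle controls. Compounds were serially diluted to final 128–1 μg/mL against cultures diluted to OD600 0.004 in CAMHB and incubated at 37 °C for 16–18 h (VRE 24 h).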

[2] = system: Enterococcus faecalis ATCC 29212; test: Antibacterial MIC assay, serial dilution; assay type: cell-based; conditions: for Selectivity index (CC50/MIC) E. faecalis 29212: CC50 Vero cells / MIC; for MIC: Enterococcus faecalis, ATCC 29112 / ATCC 29212, 24 h, read-out: MIC E. faecalis ATCC 29112
[3] = system: MRSA NRS384 (USA300); test: Multi-step resistance selection (serial passage); assay type: cell-based, Staphylococcus aureus; conditions: 15 days of serial passaging; resistance = 4-fold shift in MIC
Experimental: (§2) culture serv ed as an untreated control. The cultures were aerobically maintai ned at 37°C in shaking incubator. At specifi c sampling times, aliquots were collected, resuspended in phosphate-buffered saline (PBS) and distributed to three replicates on tryptic soy agar (TSA). After a 24-hour incubation period at 37°C, the number of colony- forming units (CFUs) was evaluated.
(§3) F i g u re S 1. Time kill results against MRSA USA 300 at 5X and 10X MIC. Compound P3 ( 38) is shown as red squares, compound P5( 40) is shown as green tri angles. Vancomycin (inverted purple triangle) is used as a b act ericidal control and linezolid (orange diamond) as a bacteriostatic control with DMSO (blue circles ) as a neg ative control.
Multi-step resistance selection
To assess the ability of M R S A NRS384 (USA300) to develop resistance to P -NM and P-AM, a multi- step serial passage experiment was used, as described previously.4-6 MRSA strain was serially passaged with sub inhibitory concentrations of compounds and control drugs (Rifampicin and linezolid) in 1 5passages over a period of two weeks. Resistance was defined as a 4 -fold shift […]
F i g u re S 2.Multi -step resistance selection for blastimidine P3 ( 38) and blastimidine P5 (40) , rifampicin, and linezolid evaluated against methicillin -resistant S. aureus (MRSA) NRS384 (USA300) for 15days. […]

[4] = system: Methicillin resistant Staphylococcus epidermidis (MRSE) ATCC 35984 NRS101; test: Antibacterial MIC assay, serial dilution; assay type: cell-based; conditions: for Selectivity index (CC50/MIC) MRSE 35984: CC50 Vero cells / MIC; for MIC: Staphylococcus epidermidis, read-out: MIC Methicillin resistant Staphylococcus epidermidis (MRSE) ATCC 35984 NRS101
[5] = system: S. aureus ATCC 6538P; test: Antibacterial MIC assay, serial dilution; assay type: cell-based, Staphylococcus aureus; conditions: for Selectivity index (CC50/MIC) S. aureus 6538P: CC50 Vero cells / MIC; for MIC: Staphylococcus aureus, ATCC 6538P / ATCC 6539P, read-out: MIC S. aureus ATCC 6539P
Procedure, shortened: as §1

[6] = system: MRSA ATCC 43300; test: Antibacterial MIC assay, serial dilution; assay type: cell-based, Staphylococcus aureus; conditions: for Selectivity index (CC50/MIC) MRSA 43300: CC50 Vero cells / MIC; for MIC: Staphylococcus aureus, read-out: MIC MRSA ATCC 43300
Procedure, shortened: as §1

[7] = system: S. aureus ΔNorA; test: Antibacterial MIC assay, serial dilution; assay type: cell-based, Staphylococcus aureus; conditions: for Selectivity index (CC50/MIC) S. aureus ΔNorA: CC50 Vero cells / MIC; for MIC: Staphylococcus aureus, read-out: MIC S. aureus ∆NorA
Procedure, shortened: as §1

[8] = system: Escherichia coli BAA-2452; test: Antibacterial MIC assay, serial dilution; assay type: cell-based; conditions: BAA2452, read-out: MIC Escherichia coli BAA-2452
[9] = system: MRSA USA-300; assay type: cell-based, Staphylococcus aureus; conditions: for log reduction in time-kill assay: after 24 h
Experimental: MRSA USA-300 was grown overnight in cation- adjusted Muell er-Hinton broth (CAMHB), then subcultured into fresh CAMHB and incubated aerobi cally at 37°C until reaching the logarithmic phase, corresponding to an optical density (OD₆₀₀) of 0.2. The bacterial cultures were further diluted to adjust to a final concentration of 5 × 10⁵ CFU/mL in CAMHB. P3, P5, vancomycin and linezolid, were added at concentrations of 5× and 10× MIC. A DMSO-treated […]
as §2
as §3, with “control. […]” for “control.”

Row | Compound | Selectivity index (CC50/MIC) P. aeruginosa ([1]; CC50 Vero cells / MIC) | MIC [1] [µg/mL] | Selectivity index (CC50/MIC) E. faecalis 29212 [2] | MIC [2] [µg/mL] | resistance development on serial passaging [3] | Selectivity index (CC50/MIC) MRSE 35984 [4] | MIC [4] [µg/mL] | Selectivity index (CC50/MIC) S. aureus 6538P [5] | MIC [5] [µg/mL] | Selectivity index (CC50/MIC) MRSA 43300 [6] | MIC [6] [µg/mL] | Selectivity index (CC50/MIC) S. aureus ΔNorA [7] | MIC [7] [µg/mL] | MIC [8] [µg/mL] | bacteriostatic or bactericidal effect in time-kill assay ([9]; 5× MIC and 10× MIC) | log reduction in time-kill assay ([9]; 5× MIC) [log] | log reduction in time-kill assay ([9]; 10× MIC) [log] | clearance in time-kill assay ([9]; 5× MIC and 10× MIC, within 24 h)
1 | CNc1ccc(C(=O)Nc2ccn([C@H]3C=C[C@H](NC(=O)C[C@@H](N)CCN(C)C(=N)N)[C@@H](C(=O)NCCc4ccccc4)O3)c(=O)n2)cc1 [Blastimidine P3] | >3.0 | 64 to 128 (≈ 97.2 to 194 µM) | >24 | 8 to 16 (≈ 12.1 to 24.3 µM) | did not produce a resistant phenotype | >32 | 8 (≈ 12.1 µM) | >12 | 16 to 32 (≈ 24.3 to 48.6 µM) | >3.0 | 64 to 128 (≈ 97.2 to 194 µM) | >48 | 4 to 8 (≈ 6.07 to 12.1 µM) | 64 (≈ 97.2 µM) | bacteriostatic activity | 2.5 | 2.7 | –
2 | CN(CC[C@H](N)CC(=O)N[C@H]1C=C[C@H](n2ccc(NC(=O)c3ccc(NC(=O)[C@@](C)(N)CO)cc3)nc2=O)O[C@@H]1C(=O)NCCc1ccccc1)C(=N)N [Blastimidine P5] | – | > 128 | >8.0 | 32 (≈ 42.9 µM) | did not produce a resistant phenotype | >16 | 16 (≈ 21.5 µM) | >16 | 16 (≈ 21.5 µM) | >8.0 | 32 (≈ 42.9 µM) | >16 | 16 (≈ 21.5 µM) | 128 (≈ 172 µM) | bactericidal activity | – | – | complete clearance
